No end group written: not given here.
System: Bacillus subtilis
Test: Standard minimum inhibitory concentration broth microdilution assay
Assay type: cell-based
Experimental: Standard minimum inhibitory concentration broth microdilution assays in the presence of BSA/acetic acid were performed in triplicate as described in [65] using peptides chemically synthesized to ≥95% purity (Proteogenix). Dilution series are based on net peptide content, calculated by multiplying the dry weight by %N and by purity. %N is a measure of the peptide (rather than salt) fraction in the lyophilized product, while purity, provided by the manufacturer, is the fraction of the peptide with the desired sequence among all supplied peptides.
To determine the AMP-activity of TPs, we performed the symmetrical experiment. Several chemically synthesized TPs, chosen for their variable proximity to Class I HA-RAMPs (Figure S8B), were used to challenge Bacillus subtilis in a standard assay, using magainin II as a positive control (Figure 7). […] A high sensitivity was deemed a useful feature for an antimicrobial assay in this proof-of-principle experiment, since we expected TPs to have a lower activity than bona fide AMPs as they have been selected for targeting and not for impeding microbial growth over the last 1.5 By.
B. subtilis was challenged with serial dilutions of synthetic peptides (See Table S7 for sequences): the Rattus norvegicus peptide hormone cholecystokinin-22, the C. reinhardtii tSP of lumenal 16.5 kDa protein, the HA-RAMP magainin II, Neurospora crassa mTP of ATP synthase F1β subunit and C. reinhardtii cTPs from RBCA and plastocyanin (PCY1) or mTPs from cytochrome c oxidase 12 kDa subunit (COX13) and Serine HydroxylMethyl Transferase 1 (SHMT1). (A) One dilution plate out of three performed replicates is shown to illustrate how the data was obtained. Transparent wells illustrate absence of growth. Red arrows point to the minimal peptide inhibiting concentration. (B) Minimum inhibitory concentrations (MIC) for each of the three replicate plates are reported in a table. TEXT PRINTED IN THE PICTURE: (B) cck-22: MIC (μg/ml) rep 1: >1000; MIC (μg/ml) rep 2: >1000; MIC (μg/ml) rep 3: >1000 | (B) TL16-tSP: MIC (μg/ml) rep 1: >1000; MIC (μg/ml) rep 2: >1000; MIC (μg/ml) rep 3: >1000 | (B) Magainin II: MIC (μg/ml) rep 1: 4; MIC (μg/ml) rep 2: 4; MIC (μg/ml) rep 3: 4 | (B) pF1β-mTP: MIC (μg/ml) rep 1: 8; MIC (μg/ml) rep 2: 4; MIC (μg/ml) rep 3: 8 | (B) RBCA-cTP: MIC (μg/ml) rep 1: 63; MIC (μg/ml) rep 2: 63; MIC (μg/ml) rep 3: 63 | (B) COX13-mTP: MIC (μg/ml) rep 1: 250; MIC (μg/ml) rep 2: 250; MIC (μg/ml) rep 3: 250 | (B) PCY1-cTP: MIC (μg/ml) rep 1: 1000; MIC (μg/ml) rep 2: 1000; MIC (μg/ml) rep 3: 1000 | (B) SHMT1-mTP: MIC (μg/ml) rep 1: 31; MIC (μg/ml) rep 2: 31; MIC (μg/ml) rep 3: 31

## cholecystokinin-22 (NLQGLDPSHRISDRDYMGWMDF; ends and bridges not checked; UniProt P01355 82-103, looked up) [cck-22, Rattus norvegicus small peptide hormone cholecystokinin-22, used as negative control]
B. subtilis challenged with chemically synthesized peptides, negative controls
  inhibited growth (in words): neither
B. subtilis, broth microdilution in the presence of BSA/acetic acid, serial dilutions based on net peptide content, peptides synthesized to ≥95% purity, replicate plate 1 of 3
  MIC (μg/ml) rep 1: > 1000 µg/mL
B. subtilis, broth microdilution in the presence of BSA/acetic acid, serial dilutions based on net peptide content, peptides synthesized to ≥95% purity, replicate plate 2 of 3
  MIC (μg/ml) rep 2: > 1000 µg/mL
B. subtilis, broth microdilution in the presence of BSA/acetic acid, serial dilutions based on net peptide content, peptides synthesized to ≥95% purity, replicate plate 3 of 3
  MIC (μg/ml) rep 3: > 1000 µg/mL

Source: article PMC7463930, “Evidence Supporting an Antimicrobial Origin of Targeting Peptides to Endosymbiotic Organelles” (Cells, 2020)
